Laboratory results taken from patent US7531546B2, “Spiro-substituted pyrrolo[2,3-D]pyrimidines as cathepsin inhibitors” (Novartis AG, priority 2003, dated 2009).

What was measured:
[1] = target: recombinant human cathepsin S (Homo sapiens, UniProt P25774); assay: in vitro inhibition of recombinant human cathepsin S; format: biochemical; conditions: recombinant enzyme 0.04 nM, substrate Z-Leu-Leu-4-methylcoumaryl-7-amide, pH 7.0, fluorescence readout
Protocol: The in vitro assay is carried out in clear, flat-bottomed, 96-well microtiter plates (Greiner GmbH, Germany) at ambient temperature using recombinant human cathepsin S. Inhibition of human cathepsin S is assayed at a constant enzyme and various substrate concentrations (substrate is Z-Leu-Leu-4-methylcoumaryl-7-amide (Bachem (Switzerland)) in 100 parts 0.2M sodium phosphate, pH 7.0, containing 2 mM EDTA, 2 parts 1% Triton X-100, 10 parts 20 mM dithiothreitol (DTT) and 58 parts distilled water. The assay is started by adding the enzyme solution (13 times higher concentration of final concentration of recombinant human Cathepsin S) to the reaction mixture containing various concentrations of the corresponding substrate and the compound. Substrate concentrations between 3.4 and 17 μM are used. The recombinant human Cathepsin S is used at a final concentration of 0.04 nM. Test compounds are used at concentrations between 0.4 and 2 times the determined IC50 of the compound at the enzyme. The relative fluorescence is continuously measured for 30 minutes and the initial velocity is obtained from each progress curve. […]

[2] = target: T1, recombinant human cathepsin K (Homo sapiens, UniProt P43235); assay: in vitro inhibition of recombinant human cathepsin K; format: biochemical; conditions: recombinant enzyme, substrate Z-Phe-Arg-AMCA, pH 7.0, 30 min preincubation, fluorescence readout
T1 sequence (P43235 115-329): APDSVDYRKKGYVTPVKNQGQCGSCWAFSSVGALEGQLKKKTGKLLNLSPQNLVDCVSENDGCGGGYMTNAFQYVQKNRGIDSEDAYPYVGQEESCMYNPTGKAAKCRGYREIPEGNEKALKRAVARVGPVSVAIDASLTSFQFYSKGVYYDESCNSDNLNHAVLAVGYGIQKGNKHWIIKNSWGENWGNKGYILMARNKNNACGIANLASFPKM
Protocol: The in vitro assay is carried out as follows:
The assay is performed in 96 well microtiter plates at ambient temperature using recombinant human cathepsin K. Inhibition of cathepsin K is assayed at a constant enzyme (0.16 nM) and substrate concentration ([…] Z-Phe-Arg-AMCA—Peptide Institute Inc. Osaka, Japan) in 100 mM sodium phosphate buffer, pH 7.0, containing 2 mM dithiothreitol, 20 mM Tween 80 and 1 mM EDTA. Cathepsin K is preincubated with the inhibitors for 30 min, and the reaction is initiated by the addition of substrate. After 30 min incubation the reaction is stopped by the addition of E-64 (2 mM), and fluorescence intensity is read on a multi-well plate reader at excitation and emission wavelengths of 360 and 460 nm, respectively.

Sequence of recombinant human cathepsin S (P25774 115-331): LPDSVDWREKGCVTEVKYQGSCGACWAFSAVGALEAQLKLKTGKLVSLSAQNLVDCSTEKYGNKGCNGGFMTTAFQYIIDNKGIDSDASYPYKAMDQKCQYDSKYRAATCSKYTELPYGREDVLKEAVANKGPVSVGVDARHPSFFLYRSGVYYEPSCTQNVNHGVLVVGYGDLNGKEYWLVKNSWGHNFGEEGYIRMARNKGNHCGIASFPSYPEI

Structure (SMILES) | IC50 [1] | IC50 [2]
CC(=O)N1CCC2(CC1)C(=O)N(Cc1cc3cnc(C#N)nc3n1CCC1CCCCC1)c1ccccc12 [Example 4-8] | ~9 nM | 
CC(=O)N1CCC2(CC1)C(=O)N(Cc1cc3cnc(C#N)nc3n1CCC(C)(C)C)c1ccccc12 [Example 4-9] | 10 nM | 16 nM
CC(C)(C)CCn1c(CN2CCC3(CCN(S(C)(=O)=O)CC3)C2)cc2cnc(C#N)nc21 [Example 4-3] | 6 nM | 8 nM
CC(C)(C)Cn1c(CN2C(=O)CC3(CCNCC3)C2=O)cc2cnc(C#N)nc21 [Example 3-0, 7-(2,2-Dimethyl-propyl)-6-(1,3-dioxo-2,8-diaza-spiro[4.5]dec-2-ylmethyl)-7H-pyrrolo[2,3-d]pyrimidine-2-carbonitrile] |  | ~0.16 nM
